From ChEMBL document CHEMBL5096193, “Potential pharmacological strategies targeting the Niemann-Pick C1 receptor and Ebola virus glycoprotein interaction” (Eur J Med Chem, 2021)

How the values were obtained:
Ebolavirus [1] = assay: Antiviral activity against Ebola virus infected in […] cells assessed as reduction in viral infection incubated for 10 days by crystal violet staining based method; type: functional, organism-based; conditions: Orthoebolavirus, 240 h
Ebolavirus [2] = assay: Antiviral activity against VSV based pseudotyped virus expressing Ebola-GP infected in […] cells assessed as reduction in viral infection incubated for 24 hrs by linear regression analysis; type: functional, organism-based; conditions: Orthoebolavirus
Ebolavirus [3] = assay: Antiviral activity against HIV based pseudotyped virus expressing Ebola-GP infected in human HeLa cells assessed as reduction in viral infection preincubated for 1 hrs followed by viral infection and measured after 48hrs by Steady-Glo luciferase assay; type: functional, organism-based; conditions: Orthoebolavirus
Ebolavirus [4] = assay: Antiviral activity against Ebola virus infected in African green monkey Vero E6 cells assessed as reduction in viral titer infected for 1 hr followed by compound addition and measured after 5 days by immunofocus assay; type: functional, organism-based; conditions: Orthoebolavirus, Vero C1008
[5] = Inhibition of NPC1/VSV pseudotyped Ebola Viral Glycoprotein protein-protein interaction; set-up: species or system Ebolavirus
Ebolavirus [6] = assay: Antiviral activity against HIV based pseudotyped virus expressing Ebola-GP infected in human A549 cells assessed as inhibition of viral infection preincubated upto 12 hrs followed by viral infection and measured after 48 hrs; type: functional; conditions: Orthoebolavirus, time 60 hrs
Zaire ebolavirus = assay: Antiviral activity against Zaire ebolavirus infected in african green monkey assessed as reduction in viral infection preincubated for 1 hr followed by viral infection 1 hr and measured after 8 days by crystal violet staining based plaque assay; type: functional, organism-based, Vero E6; conditions: Vero C1008
Ebolavirus [7] = assay: Antiviral activity against Ebola virus makona; type: functional, organism-based; conditions: Orthoebolavirus
Ebolavirus [8] = assay: Antiviral activity against Ebola virus; type: functional, organism-based; conditions: Orthoebolavirus
Ebolavirus [9] = assay: Antiviral activity against HIV based pseudotyped virus expressing Ebola-GP infected in human 293T cells assessed as inhibition of viral infection preincubated for 1 hr followed by viral infection 1 hr and measured after 72 hrs; type: functional; conditions: Orthoebolavirus, 293TA; time 74 hrs
Ebolavirus [10] = assay: Antiviral activity against Zaire Ebola virus infected in African green monkey assessed as reduction in viral infection incubated for 48hrs by GFP fluorescence based method; type: functional, organism-based, Vero E6; conditions: Orthoebolavirus, Vero C1008, 48 h

C[C@]12CC3CC(C(=O)N[C@H]4CC[C@H](N)CC4)(C1)C[C@@](c1ccccc1)(C3)C2
EC50 (Ebolavirus [1]): 0.24 µM | EC50 (Ebolavirus [2]): 0.24 µM

O=C(CNCCC1CCN(Cc2ccccc2)CC1)Nn1c2ccccc2c2ccccc21
IC50 (Ebolavirus [3]): 0.37 µM

NC(=O)c1nc(F)cnc1O [FAVIPIRAVIR]
IC50 (Ebolavirus [4]): 67 µM

O=C(CC12CC3CC(CC(C3)C1)C2)NCC(=O)N1CCN(Cc2ccccc2)CC1
IC50 [5]: 1.6 µM

CCOc1ccc(NC(=O)CSc2nnc(COc3cccc(N(C)C)c3)n2-c2ccccc2)cc1
IC90 (Ebolavirus [6]): 25.7 µM | IC50 (Zaire ebolavirus): 10 µM

CCC(CC)COC(=O)[C@H](C)N[P@](=O)(OC[C@H]1O[C@@](C#N)(c2ccc3c(N)ncnn23)[C@H](O)[C@@H]1O)Oc1ccccc1 [REMDESIVIR]
IC50 (Ebolavirus [7]): 86 µM

COC(=O)c1ccc(COc2ccccc2CN2CCN(C(=O)CNC(=O)CC34CC5CC(CC(C5)C3)C4)CC2)cc1
EC50 (Ebolavirus [7]): 0.16 µM | IC50 [5]: 0.13 µM

CCN(CC)CC(=O)NNc1ccccc1Sc1cc(Cl)ccc1[N+](=O)[O-]
IC50 (Ebolavirus [3]): 4.69 µM

COc1ccc(S(=O)(=O)N(CC(=O)Nc2ccccc2-c2ccccc2)c2ccc(C)cc2)cc1
IC90 (Ebolavirus [6]): 8.6 µM | IC50 (Zaire ebolavirus): 8.07 µM

O=C(CN1CCCC1)NNc1ccccc1Sc1cc(Cl)ccc1[N+](=O)[O-]
IC50 (Ebolavirus [3]): 2.04 µM

CN(C)CCOc1ccc(/C(=C(/CCCl)c2ccccc2)c2ccccc2)cc1 [TOREMIFENE]
IC50 (Ebolavirus [8]): 0.162 µM

FC(C1=Nc2ccccc2N=C(c2ccccc2)C1)C(F)(F)F (configuration not stated)
IC90 (Ebolavirus [9]): 12.1 µM | IC50 (Ebolavirus [10]): 10 µM
